Drawing on PubChem BioAssay (NCI), this text covers GI50 and TGI for 42 molecules.

This assay relates to MDA-MB-468 breast. Description: growth of human tumour cells (NCI), 48 h.

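Method: 48-hour compound exposure of cells in 96-well plates, five concentrations, linear interpolation of endpoints. GI50 marks 50% less growth. At the TGI there is no net growth.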

For `COc1ccc(CNS(=O)(=O)/N=C2\NC(=O)NC2=C(Cl)Cl)cc1`, the GI50 is 180 nM and the TGI amounted to 650 nM.
For `COc1ccc(-c2cnc(NC(=O)CCCCCCNC(=O)C(O)(O)C(F)(F)F)s2)cc1`, in that order: 877 nM and 5560 nM.
For `C=C(C[C@](O)(C(=O)/C=C/c1ccc(Cl)cc1)C(=O)OC)c1ccccc1` the same measures were 3760 nM and 13700 nM.
For `Cc1ccc(-c2nc3nc(-c4ccccc4)nc(N4CCCNCC4)c3o2)cc1` the same measures were 1590 nM and 3350 nM.
As for `CCN(CC)CCCC(C)Nc1c2ccc(Cl)cc2nc2ccc(O)cc12` (centres undefined), the GI50 was 1310 nM and the TGI came to 2910 nM.
For `CC1(C)OC2=C(CC1Br)C(=O)C(=O)c1ccccc12` (centres undefined) the same measures were 1450 nM and 2820 nM.
For `C#CCNC(=O)c1cccc2c1cc(C)n2-c1nc2c(c(NCc3ccccc3)n1)CCCC2` the same measures were 21.3 nM and 54.6 nM.
Take `Nc1nc2c(nnn2C2CC(O)C(CO)O2)c(=O)[nH]1` (centres undefined): the GI50 was 825 nM and the TGI was found to be 7200 nM.
For `CCCCCCCC[C@@H](O)CC(=O)N[C@@H](CC(N)=O)C(=O)N[C@@H](CCC(N)=O)C(=O)N[C@@H](CC(=O)c1cc(C)cc(O)c1C(=O)c1c(O)cccc1O)CC(C)C` the same measures were 401 nM and 3140 nM.
For `CCOCC(=O)N[C@H]1CCc2cc(OC)c(OC)c(OC)c2-c2ccc(OC)c(=O)cc21` the same measures were less than 10 nM and more than 100000 nM.
With `COC(=O)Nc1nc2ccc(Oc3ccc(NC(=O)Nc4cc(C(F)(F)F)ccc4F)cc3)cc2s1`, the GI50 was 9110 nM and the TGI is more than 25000 nM.
For `Cc1ccc(C(=O)NC(C)C)cc1-c1ccc(C(=O)NCC2CC2)cc1` the same measures were more than 25000 nM and more than 25000 nM.
With `CC/C=C\C[C@H](F)C/C=C1/C(=O)C=C[C@@H]1C/C=C\CCCC(=O)O`, the GI50 was 3850 nM and the TGI worked out at 11500 nM.
For `C[N+]1=C(/C=C/c2ccc(O)c3ncccc23)C(C)(C)c2ccccc21`, in that order: 3050 nM and 10600 nM.
For `CCCCCCCCn1ccc2cc(NC(=O)Cn3cc(CN4CCCC4)nn3)ccc21`, in that order: 1630 nM and 3170 nM.
For `CCCn1c(=S)sc2c1nc(C)n1c(Nc3ccccc3)nnc21`, in that order: 2030 nM and 13000 nM.
On to `Nc1nc(N(Cc2ccccc2)c2ccccc2)c2cn[nH]c2n1`, for which the GI50 is 1960 nM and the TGI was 6330 nM.
For `CC(C)(O)c1cncc(-c2ccc3ncnc(N4CCc5cc(F)c(Cl)cc54)c3c2)c1`, in that order: 567 nM and 3500 nM.
`CS(=O)(=O)CCNCc1ccc(-c2ccc3ncnc(Nc4ccc(OCc5ccccc5)cc4)c3c2)o1`: the GI50 is 146 nM and the TGI is 1620 nM.
For `O=C(Nc1ccncc1)C(=O)c1cn(S(=O)(=O)c2cccc(F)c2)c2ccccc12`, in that order: 1260 nM and 8380 nM.
As for `COc1ccc(-c2nc(-c3nc4ccc(Cl)cc4[nH]3)c3ccccn23)cc1`, the GI50 was 1990 nM and the TGI is 6760 nM.
For `COc1ccc2c(c1)CCCN2c1c2ccccc2nc2ccccc12` the same measures were 386 nM and more than 100000 nM.
For `O=C(O)CCNC1CCCCC1`, in that order: more than 100000 nM and more than 100000 nM.
In the case of `CCCC(=O)OCC1OC(n2cnc3c(=S)nc[nH]c32)C(OC(=O)CCC)C1OC(=O)CCC` (centres undefined), the GI50 was 802 nM and the TGI turned out to be 45000 nM.
For `COc1cc2cc(Oc3ccc(NC(=O)Nc4ccc(Cl)c(C(F)(F)F)c4)cc3)c(C)nc2cc1OCCN1CCOCC1` the same measures were 474 nM and 2060 nM.
For `O=C(O)/C=C(\c1nc2ccc([N+](=O)[O-])cc2[nH]1)c1cc(Cl)ccc1O` the same measures were 2090 nM and 9960 nM.
For `C#C[C@]1(O)CC[C@H]2[C@@H]3CC=C4c5sc(Nc6ncccc6C)nc5CC[C@]4(C)[C@H]3CC[C@@]21C`, the GI50 is 1250 nM and the TGI stood at 3230 nM.
As for `O=C(CCc1nnc2sc(-c3ccc(Cl)cc3Cl)nn12)c1nc2ccccc2[nH]1`, the GI50 was 466 nM and the TGI turned out to be 1490 nM.
With `O=C1C(Cl)=C(NCCN2CCOCC2)C(=O)c2ncccc21`, the GI50 was 1410 nM and the TGI was found to be 2910 nM.
For `Cc1ccc(C(=O)N(CCCN)C(c2oc3cc(Cl)ccc3c(=O)c2Cc2ccccc2)C(C)C)cc1` (centres undefined), in that order: less than 10 nM and 904 nM.
With `CN(C)CCCOc1ccc(C(=C(c2ccccc2)C2CCCC2)c2ccc(OCCCN(C)C)cc2)cc1`, the GI50 is 1710 nM and the TGI stood at 3970 nM.
For `O=C1Nc2ccccc2C1(c1ccc(O)cc1)c1ccc(O)cc1` the same measures were 227 nM and 14100 nM.
Turning to `Cc1ccc2c(c1)Sc1c(ccc3ccccc13)N2`, the GI50 was 56200 nM and the TGI is more than 100000 nM.
For `O=C(Nc1ccc(-c2nc(N3CCOCC3)c3cccn3n2)cc1)Nc1cccnc1`, in that order: 69.2 nM and 570 nM.
For `Cc1cc(-c2cnn3c(NCC4CC(C)(O)C4)cc(Oc4cccnc4)nc23)ccc1C(=O)NC1CC1` (centres undefined), the GI50 is 2080 nM and the TGI was more than 100000 nM.
For `NC(=O)NS(=O)(=O)c1ccc(N2N=C(C(F)(F)F)CC2c2cc(C(F)(F)F)cc(C(F)(F)F)c2)cc1` (centres undefined), in that order: 2700 nM and 10900 nM.
For `COc1ccc(-c2onc(N)c2-c2cc(OC)c3c(c2)OCO3)cc1` the same measures were 644 nM and 3150 nM.
For `COc1cc[nH]c1/C=C1\C(=O)Nc2ccc(F)c(C#CC3(O)CCNCC3)c21`, in that order: 123 nM and 600 nM.
For the molecule `CC/C=C\C[C@@H](O)C/C=C1/C(=O)C=C[C@H]1C/C=C\CCCC(=O)OC`, the GI50 is 2120 nM and the TGI was found to be 4790 nM.
Regarding `CNC(=O)c1cc(-c2ccc(NC(=O)Nc3ccc(N4CCN(C)CC4)c(C(F)(F)F)c3)cc2)nc2cccnc12`, the GI50 is 14800 nM and the TGI turned out to be 32900 nM.
On to `Nc1nccc(-c2c(-c3ccc(F)cc3)ncn2C2CCC(O)CC2)n1` (centres undefined), for which the GI50 was 822 nM and the TGI came out at 6360 nM.
For `COc1cc2ncn(-c3cc(OCc4cccs4)c(C(N)=O)s3)c2cc1OC`, in that order: 654 nM and 6410 nM.
